According to patent US8853227B2, “Methotrexate adjuvants to reduce toxicity and methods for using the same” (Tosk, Incorporated, priority 2008, dated 2014):

How the values were obtained:
[1] = tested on: AS283 human lymphoma xenografts; test: Mouse Study V (xenograft with AS283 implants); type: in vivo, C.B.-17 SCID mice
Procedure: Six-week-old male SCID mice were implanted with fragments of AS283 human lymphoma tumors. The tumors were allowed to reach 75-198 mg in weight (75-198 mm^3 in size) before the start of treatment. The experiment consisted of two treatment groups and one vehicle-treated control group, with ten animals per group, for a total of 30 mice on the first day of treatment.
(§1) TK-112690 was administered by ip injection [twice every 2 days for 5 injections with six hour interval (q6h×2, q2d×5)] at a dosage of 30 mg/kg/injection. MTX was administered by ip injection q2d×5 at a dosage of 5.0 mg/kg/injection three hours after the TK-112690 injection. The control group was treated with both vehicles, which were administered on the corresponding compound schedules.
Six-week-old male C.B.-17 SCID mice were acclimated in the laboratories for seven days prior to experimentation. Thirty-to-forty mg fragments of AS283 human lymphoma tumor were implanted sc in mice near the right flank using a 12-gauge trocar needle and allowed to grow. Tumors were allowed to reach 75-198 mg in weight (75-198 mm^3 in size) before the start of treatment. A sufficient number of mice were implanted so that tumors in a weight range as narrow as possible were selected for the trial on the day of treatment initiation (day 8 after tumor implantation). Those animals selected with tumors in the proper size range were assigned to the various treatment groups so that the median tumor weights on the first day of treatment were as close to each other as possible (162 mg for all groups). The experiment consisted of two treatment groups and one vehicle-treated control group with ten animals per group for a total of 30 mice on the first day of treatment.
A 15 mg/mL solution of TK-112690 was prepared daily by dissolving the compound in 100% DMSO (by vortexing as needed) and then adding PBS for a 3 mg/mL dosing solution. The final composition of the vehicle was 20% DMSO/80% PBS. The 25 mg/mL stock solution of MTX for injection was diluted each day of injection with saline to a 0.75 mg/mL dosing solution. Both compounds were administered ip by exact body weight using an injection volume of 0.1 mL for every 10 g of body weight.
as §1, with “intraperitoneal (ip)” for “ip”
The sc tumors were measured and the animals were weighed thrice weekly starting the day of the first treatment. Tumor volume was determined by caliper measurements (mm) and using the formula for an ellipsoid sphere: L×W^2/2=mm^3, where L and W refer to the larger and smaller perpendicular dimensions collected at each measurement. This formula is also used to calculate tumor weight, assuming unit density (1 mm^3=1 mg).
The study was terminated twenty one days after tumor implantation. Any animal found moribund or any animal whose tumor reached 4,000 mg, ulcerated or was sloughed off was euthanized prior to study termination.

[2] = tested on: UPase knockout (19519) Drosophila melanogaster; test: Fly Study II, MTX lethality in UPase knockout flies; type: in vivo
Procedure: Embryos of UPase knockout (19519) Drosophila melanogaster were orally exposed to a dose range of MTX doses in food admix. Embryos of Wild-type (Oregon-R) were orally exposed to the same dose range of MTX in presence and absence of 0.04 mg TK-112690. Scoring was based on life or death 15 days after initiation of MTX exposure. […] Wild-type D. melanogaster are sensitive to lethal effects of 0.1 mg MTX.
The aim of this study was to evaluate the lethal effects of a range (0.001, 0.01, 0.05, 0.1, 0.2, 0.4 mg) of doses of orally fed MTX in wild-type (Ore-R) and UPase mutant Drosophila melanogaster. Embryos of UPase knockout (19519) Drosophila melanogaster were orally exposed to a dose range of MTX (0.001, 0.01, 0.05, 0.1, 0.2, 0.4 mg) in food admix. Embryos of Wild-type (Oregon-R) were orally exposed to the same dose range of MTX in presence and absence of 0.04 mg TK-112690. Scoring was based on life or death 15 days after initiation of MTX exposure.

[3] = MTX alone 5.0 mg/kg/injection ip q2d×5, day 21
[4] = TK-112690 30 mg/kg/injection combined with MTX 5.0 mg/kg/injection, day 21

Structure (SMILES) | median tumor weight value, % of the control on day 21 ([1]; MTX alone 5.0 mg/kg/injection ip q2d×5) [%] | median tumor weight value smaller than the median at the start of treatment (162 mg) [1, 3] [mg] | median tumor weight value smaller than the median at the start of treatment (162 mg), % [1, 3] [%] | sensitivity of UPase knockout flies to lethal effects of MTX ([2]; MTX 0.001-0.4 mg oral, 15 days) | median tumor weight value smaller than the median at the start of treatment (162 mg) [1, 4] [mg] | median tumor weight value smaller than the median at the start of treatment (162 mg), % [1, 4] [%] | median tumor weight value, % of the control on day 21 ([1]; TK-112690 30 mg/kg/injection ip (q6h×2, q2d×5) combined with MTX 5.0 mg/kg/injection) [%] | tumor volumes, MTX+TK-112690 versus MTX ([1]; day 21, p=1.0) | added protection from methotrexate toxicities by TK-112690 in UPase mutant flies ([2]; UPase mutant flies, dose range of methotrexate)
CN(Cc1cnc2nc(N)nc(N)c2n1)c1ccc(C(=O)N[C@@H](CCC(=O)O)C(=O)O)cc1 [MTX, N-[4-[[(2,4-diamino-6-pteridinyl)methyl]methylamino]benzoyl]-L-glutamic acid, reference compound] | 2.8 | 40.0 | 24.7 | resistant to lethal effects |  |  |  |  | 
Cc1cn2c(nc1=O)O[C@H]1[C@H](O)[C@@H](CO)O[C@H]12 [TK-112690, 2,2′-anhydro-5-methyluridine] |  |  |  |  | 9.0 | 5.6 | 3.5 | no statistical difference | does not provide added protection
